US9975854B2, “Benzomorphan analogs and use thereof” (Purdue Pharma L.P., priority 2014, dated 2018)

Columns and labels:
κ-opioid receptor [1] = target: T1, κ-opioid receptor (Homo sapiens (Human), UniProt P41145); experiment: κ-opioid receptor radioligand dose-displacement binding assay ([3H]-U69,593); settings: binding affinity, HEK-293 or CHO cells
Protocol: Membranes from recombinant HEK-293 cells, CHO or U-2 OS cells expressing the recombinant human κ opioid receptor (κ) were prepared by lysing cells in ice cold hypotonic buffer (2.5 mM MgCl2, 50 mM HEPES, pH 7.4) (10 mL/10 cm dish) followed by homogenization with a tissue grinder/Teflon pestle. Membranes from a cell line naturally expressing kappa opioid receptors can also be used. Membranes were collected by centrifugation at 30,000×g for 15 min at 4° C. and pellets were resuspended in hypotonic buffer to a final concentration of 1-3 mg/mL. Protein concentrations were determined using the BioRad protein assay reagent with bovine serum albumen as standard. Aliquots of κ receptor membranes were stored at −80° C.
Radioligand dose displacement assays used 0.4 nM [^3H]-U69,593 (GE Healthcare, Piscataway, N.J.; 40 Ci/mmole) with 15 μg membrane protein (recombinant K opioid receptor expressed in HEK 293 cells; in-house prep) in a final volume of 200 μl binding buffer (5% DMSO, 50 mM Trizma base, pH 7.4). Non-specific binding was determined in the presence of 10 μM unlabeled naloxone or U69,593. All reactions were performed in 96-well polypropylene plates for 1 hr at a temperature of about 25° C. Binding reactions were terminated by rapid filtration onto 96-well Unifilter GF/C filter plates (Perkin Elmer, Shelton, Conn.) presoaked in 0.5% polyethylenimine (Sigma). Harvesting was performed using a 96-well tissue harvester (Perkin Elmer, Shelton, Conn.) followed by five filtration washes with 200 μl ice-cold binding buffer. Filter plates were subsequently dried at 50° C. for 1-2 hours. Fifty μl/well scintillation cocktail (Perkin Elmer, Shelton, Conn.) was added and plates were counted in a Packard Top-Count for 1 min/well.
In TABLE 3, binding affinity of certain Compounds of the Invention to the ORL-1, μ-, and κ-opioid receptors was determined as described above in HEK-293 or CHO cells.

κ-opioid receptor [2] = target: T1, κ-opioid receptor; experiment: κ-opioid receptor [35S]GTPγS functional assay, HEK-293 or CHO cells; type: biochemical
Protocol: Functional [^35S]GTPγS binding assays were conducted as follows. K opioid receptor membrane solution was prepared by sequentially adding final concentrations of 0.026 μg/μl κ membrane protein (in-house), 10 μg/mL saponin, 3 μM GDP and 0.20 nM [^35S]GTPγS to binding buffer (100 mM NaCl, 10 mM MgCl2, 20 mM HEPES, pH 7.4) on ice. The prepared membrane solution (190 μl/well) was transferred to 96-shallow well polypropylene plates containing 10 μl of 20× concentrated stock solutions of agonist prepared in DMSO. Plates were incubated for 30 min at a temperature of about 25° C. with shaking. Reactions were terminated by rapid filtration onto 96-well Unifilter GF/B filter plates (Perkin Elmer, Shelton, Conn.) using a 96-well tissue harvester (Packard) and followed by three filtration washes with 200 μl ice-cold binding buffer (10 mM NaH2PO4, 10 mM Na2HPO4, pH 7.4). Filter plates were subsequently dried at 50° C. for 2-3 hours. Fifty μl/well scintillation cocktail (Perkin Elmer, Shelton, Conn.) was added and plates were counted in a Packard Top-Count for 1 min/well.
κ GTP EC50 is the concentration of a compound providing 50% of the maximal response for the compound at a κ receptor. […]
In TABLE 4, activity response of certain Compounds of the Invention to the μ- and κ-opioid receptors was determined as described above for functional assays using HEK-293 or CHO cells.

μ-opioid receptor = μ-opioid receptor (Homo sapiens (Human), UniProt P35372); experiment: μ-opioid receptor [35S]GTPγS functional assay, HEK-293 or CHO cells; type: biochemical; settings: HEK-293 or CHO cells; for EC50: read-out: GTPγS μ EC50; for Emax: relative to DAMGO
Procedure, shortened: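 Membranes from recombinant human μ-opioid receptor cells (HEK-293, CHO or U-2 OS) at 0.026 mg/mL with saponin, […] and 0.20 nM [35S]GTPγS in HEPES buffer pH 7.4, incubated 30 min at about 25 °C; bound radioactivity by filtration. EC50 from sigmoidal fit; Emax relative to DAMGO.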

CN1CC[C@@]2(C)c3cc(O)ccc3C[C@@H]1[C@@H]2NCCc1ccc(S(C)(=O)=O)cc1 [Compound 10, (2R,6S,11R)-3,6-dimethyl-11-((4-(methylsulfonyl)phenethyl)amino)-1,2,3,4,5,6-hexahydro-2,6-methanobenzo[d]azocin-8-ol]
Ki (κ-opioid receptor [1]): 0.301 ± 0.00979 µM
EC50 (κ-opioid receptor [2]; bound given in uM): > 20 µM
Emax (κ-opioid receptor [2]; relative to U69,593): 1%
EC50 (μ-opioid receptor): 225 ± 60.8 nM
Emax (μ-opioid receptor): 38.5 ± 2.33%

CC(C)S(=O)(=O)N1CCC(CN(C)[C@H]2[C@H]3Cc4ccc(O)cc4[C@]2(C)CCN3C)CC1 [Compound 55, (2R,6S,11R)-11-(((1-(isopropylsulfonyl)piperidin-4-yl)methyl)(methyl)amino)-3,6-dimethyl-1,2,3,4,5,6-hexahydro-2,6-methanobenzo[d]azocin-8-ol]
Ki (κ-opioid receptor [1]; bound given in uM): > 20 µM
EC50 (μ-opioid receptor): 3.28 ± 0.39 nM
Emax (μ-opioid receptor): 52 ± 4.85%

CN1CC[C@@]2(C)c3cc(O)ccc3C[C@@H]1[C@@H]2N(C)CC1CCN(CC(C)(C)O)CC1 [Compound 97, (2R,6S,11R)-11-(((1-(2-hydroxy-2-methylpropyl)piperidin-4-yl)methyl)(methyl)amino)-3,6-dimethyl-1,2,3,4,5,6-hexahydro-2,6-methanobenzo[d]azocin-8-ol]
Ki (κ-opioid receptor [1]): 0.00212 ± 0.00055 µM
EC50 (μ-opioid receptor): 22.6 ± 2.34 nM
Emax (μ-opioid receptor): 47 ± 1.53%
